Our source for the IC50 and EC50 values is patent US20240327334A1, “Covalent Inhibitors As Antiviral Agents” (Enanta Pharmaceuticals, Inc., priority 2022, published 2024).

For assay [1], the target named is SARS-CoV-2 Papain-like (PLpro) protease (Severe acute respiratory syndrome coronavirus 2, UniProt P0DTD1). The assay can be described thus: SARS-CoV-2 Papain-like (PLpro) protease biochemical enzyme inhibition assay (ubiquitin-fluorophore substrate, Ub-R110). Particulars: Ub-R110 substrate; run in duplicate; read-out: PLpro IC50.
For assay [2], the system named is SARS-CoV-2 replicon. The assay can be described thus: microbe, parasite or virus in culture. The assay is classed as cell-based. Particulars: Severe acute respiratory syndrome coronavirus 2, Huh-7.

As usually defined, the IC50 is the point on the concentration scale where inhibition reaches its midpoint. By EC50 is commonly meant the concentration at which the effect is half-maximal. A low value points to higher potency in that assay.

On to `N#CCNC(=O)C(=O)NCc1ccccc1C(=O)NC1(c2cc(Cl)cc(-c3cnn(C(F)F)c3)c2)CC1` [Example 456], for which the half-inhibitory concentration (IC50) in assay [1] was less than 0.1 µM. In assay [2], this compound yielded an EC50 of 1 to 10 µM.

Consider `C[C@@H](NC(=O)c1ccccc1CNC(=O)C(=O)NCC#N)c1cc(-c2ccoc2)cc(C(F)(F)F)c1` [Example 464], for which the IC50 in assay [1] is less than 0.1 µM. This compound also registered an EC50 in assay [2] of 1 to 10 µM.

For `N#CCNC(=O)C(=O)NCc1ccccc1C(=O)NC1(c2cc(Cl)cc(-c3cnn(C4CC4)c3)c2)CC1` [Example 454], in assay [1], the IC50 was less than 0.1 µM. The compound further had a half-maximal effective concentration (EC50) in assay [2] of 1 to 10 µM.

As for `CC(=O)N1CCN(c2cc(C3(NC(=O)c4ccccc4CNC(=O)C(=O)NCC#N)CC3)c3ccccc3c2)CC1` [Example 328], the IC50 in assay [1] is less than 0.1 µM. In assay [2], this compound came in with an EC50 of 1 to 10 µM.

With `CONC(=O)/C=C/CNC(=O)C(=O)NCc1ccccc1C(=O)NC1(c2cccc3ccccc23)CC1` [Example 560], the half-maximal inhibitory concentration (IC50) in assay [1] lay within 0.1 to 1 µM. Moreover, the EC50 in assay [2] was 1 to 10 µM.

Take `Cn1cc2cc(C3(NC(=O)c4ccccc4CNC(=O)C(=O)NCC#Cc4ccc(C#N)cc4OC(F)(F)F)CC3)ccc2n1` [Example 214]: the IC50 in assay [1] is less than 0.1 µM. Also, the EC50 in assay [2] is less than 1 µM.

Take `Cn1cc(-c2cc(F)cc(C3(NC(=O)c4ccccc4CNC(=O)C(=O)NCC#N)CC3)c2)cn1` [Example 235]: the IC50 in assay [1] is less than 0.1 µM. In assay [2], this compound gave an EC50 greater than 10 µM.

With `N#CCNC(=O)C(=O)NCc1ccccc1C(=O)NC1(c2cccc(-c3ccc(F)cc3)c2)CC1` [Example 543], the IC50 in assay [1] lay in the range of 0.1 to 1 µM. In assay [2], this compound displayed an EC50 greater than 10 µM.

On to `N#CCNC(=O)C(=O)NCc1ccccc1C(=O)NC1(c2cc(C(=O)NC3CC3)cc3ccccc23)CC1` [Example 117], for which, in assay [1], the IC50 was less than 0.1 µM. This compound came in with an EC50 in assay [2] of 1 to 10 µM.

As to `CC1(CNC(=O)C(=O)NCc2ccccc2C(=O)NC2(c3cccc4ccccc34)CC2)CN(C#N)C1` [Example 429], the IC50 in assay [1] was less than 0.1 µM. In assay [2], the EC50 is less than 1 µM.

`C[C@@H](C#Cc1ccc(C#N)cc1C(F)(F)F)NC(=O)C(=O)NCc1ccccc1C(=O)NC1(c2ccc3nn(C)cc3c2)CC1` [Example 109]: the IC50 in assay [1] was less than 0.1 µM. The compound further returned an EC50 in assay [2] of less than 1 µM.

For the compound `Cc1nn(C)c(C)c1-c1cc(F)c(F)c(C2(NC(=O)c3ccccc3CNC(=O)C(=O)NCC#Cc3nccs3)CC2)c1` [Example 297], the IC50 in assay [1] is less than 0.1 µM. This compound registered an EC50 in assay [2] of less than 1 µM.

Take `O=C(C#CCNC(=O)C(=O)NCc1ccccc1C(=O)NC1(c2cccc3ccccc23)CC1)NC1CC(F)(F)C1` [Example 519]: the IC50 in assay [1] was less than 0.1 µM. Besides, the EC50 in assay [2] was less than 1 µM.

Consider `C[C@@H](C#Cc1ncccc1CC#N)NC(=O)C(=O)NCc1ccccc1C(=O)NC1(c2ccc3nn(C)cc3c2)CC1` [Example 209], for which the IC50 in assay [1] was less than 0.1 µM. This compound returned an EC50 in assay [2] of less than 1 µM.

In the case of `N#Cc1cc(-c2cccs2)cc(C2(NC(=O)c3ccccc3CNC(=O)C(=O)NCC#Cc3nccs3)CC2)c1` [Example 129], in assay [1], the IC50 is less than 0.1 µM. In assay [2], this compound showed an EC50 of less than 1 µM.

Turning to `Cc1nn(C)c(C)c1-c1cc(C2(NC(=O)c3ccccc3CNC(=O)C(=O)N[C@@H](C)C#Cc3nccs3)CC2)cc2ccccc12` [Example 298], the IC50 in assay [1] was less than 0.1 µM. The compound also returned an EC50 in assay [2] of less than 1 µM.

For `O=C(NC/C=C1\CCOC1=O)C(=O)NCc1ccccc1C(=O)NC1(c2cc(Br)cc3ccccc23)CC1` [Example 151], in assay [1], the IC50 was less than 0.1 µM. The EC50 in assay [2] was less than 1 µM.

Consider `C#CCNC(=O)C(=O)NCc1ccccc1C(=O)NC1(c2cc(Cl)cc(-c3nnc(C)o3)c2)CC1` [Example 484], for which the IC50 in assay [1] is less than 0.1 µM. The EC50 in assay [2] is less than 1 µM.

For `N#CCNC(=O)C(=O)NCc1ccccc1C(=O)NC1(c2cc(-c3cnn(C4CC4)c3)cc(C3CC3)c2)CC1` [Example 133], the half-maximal inhibitory concentration (IC50) in assay [1] was less than 0.1 µM. Besides, in assay [2], the EC50 was 1 to 10 µM.

For `COC(=O)/C=C/CNC(=O)C(=O)NCc1ccccc1C(=O)N[C@H](C)c1cc(-c2cnn(C3CC3)c2)cc(C(F)(F)F)c1` [Example 459], the IC50 in assay [1] was less than 0.1 µM. The compound further showed an EC50 in assay [2] of 1 to 10 µM.

On to `O=C(NCC#Cc1ncc(F)s1)C(=O)NCc1ccccc1C(=O)NC1(c2ccc3ccccc3c2)CC1` [Example 179], for which the IC50 in assay [1] was less than 0.1 µM. The EC50 in assay [2] was less than 1 µM.

Turning to `CC(C)Oc1cccnc1C#CCNC(=O)C(=O)NCc1ccccc1C(=O)NC1(c2cc(F)cc(-c3cnn(C4CC4)c3)c2)CC1` [Example 267], the IC50 in assay [1] was less than 0.1 µM. In assay [2], this compound yielded an EC50 of less than 1 µM.

In the case of `CN1C[C@H](F)C[C@H]1COc1ccc(CNC(=O)C(=O)NCC#N)c(C(=O)NC2(c3cccc4ccccc34)CC2)c1` [Example 318], the IC50 in assay [1] is less than 0.1 µM. The compound also came in with an EC50 in assay [2] of less than 1 µM.

In the case of `C#CCNC(=O)C(=O)NCc1ccccc1C(=O)NC1(c2cc(F)c(F)c(-c3cccs3)c2)CC1` [Example 241], in assay [1], the IC50 was less than 0.1 µM. Besides, the EC50 in assay [2] lay within 1 to 10 µM.

In the case of `C[C@@H](NC(=O)c1cc(F)c(F)cc1CNC(=O)C(=O)NCC#N)c1cccc2ccccc12` [Example 363], the half-maximal inhibitory concentration (IC50) in assay [1] lay within 0.1 to 1 µM. Also, the EC50 in assay [2] is less than 1 µM.

On to `C#CCNC(=O)C(=O)NCc1ccccc1C(=O)NC1(c2cc(F)cc(-c3cnn(C4CC4)c3)c2F)CC1` [Example 311], for which, in assay [1], the IC50 was less than 0.1 µM. The compound also returned an EC50 in assay [2] of less than 1 µM.

Turning to `O=C(NCC#Cc1ccc(F)cn1)C(=O)NCc1ccccc1C(=O)NC1(c2ccc3ccccc3c2)CC1` [Example 192], the IC50 in assay [1] is less than 0.1 µM. In assay [2], this compound showed an EC50 of less than 1 µM.

For `O=C(/C=C/CNC(=O)C(=O)NCc1ccccc1C(=O)NC1(c2cccc3ccccc23)CC1)Nc1ccccn1` [Example 569], in assay [1], the IC50 lay in the range of 0.1 to 1 µM. This compound returned an EC50 in assay [2] of less than 1 µM.

For the compound `N#CCNC(=O)C(=O)NCc1ccccc1C(=O)NC1(c2cn(-c3cnn(C4CC4)c3)c3ncccc23)CC1` [Example 409], in assay [1], the IC50 was less than 0.1 µM. The compound also returned an EC50 in assay [2] of 1 to 10 µM.

For the compound `O=C(NCC#Cc1ncc(F)s1)C(=O)NCc1ccccc1C(=O)NC1(c2cc(F)cc(-c3cnn(C4CC4)c3)c2)CC1` [Example 249], the IC50 in assay [1] was less than 0.1 µM. For the same compound, in assay [2], the EC50 is less than 1 µM.

Regarding `CN(C)S(=O)(=O)n1cc(-c2cc(C3(NC(=O)c4ccccc4CNC(=O)C(=O)NCC#N)CC3)c3ccccc3c2)cn1` [Example 355], the IC50 in assay [1] was less than 0.1 µM. Also, the EC50 in assay [2] is less than 1 µM.

On to `N#CCNC(=O)C(=O)NCc1ccccc1C(=O)NC1(c2ccnc3cc(Cl)ccc23)CC1` [Example 423], for which the IC50 in assay [1] is less than 0.1 µM. In assay [2], this compound showed an EC50 of 1 to 10 µM.

`O=C(NCC#Cc1ccc(Cl)nn1)C(=O)NCc1ccccc1C(=O)NC1(c2ccc3ccccc3c2)CC1` [Example 199]: the IC50 in assay [1] is less than 0.1 µM. In addition, the EC50 in assay [2] is less than 1 µM.

As to `C#CCNC(=O)C(=O)NCc1ccccc1C(=O)NC1(c2cccc(-c3cccs3)c2Cl)CC1` [Example 383], the IC50 in assay [1] is less than 0.1 µM. This compound came in with an EC50 in assay [2] of less than 1 µM.

Regarding `C#CCNC(=O)C(=O)NCc1ccccc1C(=O)NC1(c2ccc3nn(C)cc3c2)CC1` [Example 338], in assay [1], the IC50 is less than 0.1 µM. In assay [2], this compound gave an EC50 of less than 1 µM.

For `O=C(NCC#Cc1nccs1)C(=O)NCc1ccccc1C(=O)NC1(c2ccc3c4c(cccc24)CC3)CC1` [Example 440], the IC50 in assay [1] is less than 0.1 µM. In assay [2], the EC50 is less than 1 µM.

On to `C#CCNC(=O)C(=O)NCc1ccccc1C(=O)NC1(c2cc(Cl)cc(-c3cncs3)c2)CC1` [Example 447], for which, in assay [1], the IC50 is less than 0.1 µM. Besides, the EC50 in assay [2] is less than 1 µM.
